# Like-named read-outs stand apart in the source and are kept apart here.
# Tests used:
# Assay type in all cases: cell-based, zebrafish (Danio rerio)
# [1] = test system: AhR transcription factor activation (AhR/ARNT/XRE pathway); assay: AhR-responsive transient dual luciferase reporter gene (DLR) assay in ZFL cells
# Procedure: (§1) ZFL cells were seeded either into white, clear-bottom 96-well microtiter plates (Corning, New York, USA; for DLR assays) or transparent 96-well microtiter plates (Corning, New York, USA; for viability assays) at a density of 1.5 × 10^5 cells/mL, in 100 μL/well. After 24 h of incubation, cells reached a confluence of about 80%.
# (§2) The transient transfection was conducted in a 2-μg transfection reagent to 1 μg plasmid DNA ratio, applying the XHP transfection reagent (Roche, Mannheim, Germany). Specific transfection optimization experiments were reported priory (Lungu-Mitea et al. [2018]). The transient transfection reaction was incubated as a co-transfection in a 10:1 reporter to control ratio (0.9 μg reporter plasmid, 0.1 μg control plasmid) for 30 min, before adding the reaction mixture to the cells. Firefly luciferase-bearing vectors were used as the primary reporter plasmids, and Renilla luciferase-bearing vectors were used for normalization (control plasmid). Ten microliter per well of the transfection reaction mix was added to the cells and incubated for 24 h. Following (Lungu-Mitea and Lundqvist [2020]), cells used in both DLR and viability assays were transiently transfected.
# (§3) Prepared aliquots of stock solutions were thawed and further titrated using the nutrition medium supplemented with 5‰ (v/v) DMSO as a solvent. […] Different exposure regimes were applied. […] All potential co-transfection combinations were screened in this initial approach. […] Further, cells transfected with candidate plasmid combinations were subjected to a TCDD exposure regime from 100 pM to 100 nM (0.1, 0.3, 1, 3, 10, 30, 100 nM). Cells were exposed in 100 μL/well of the specifically spiked nutrition medium. Solvent controls (negative controls) were conducted in six replicates for every specific experiment.
# (§4) After 24 h of exposure to AhR-agonists, cells on white 96-well microtiter plates were lysed in 20-μL passive lysis buffer (PLB; Promega, Madison, USA), and quantitative AhR-dependent luminescence was measured via Dual-Luciferase® Reporter Assay (DLR; Promega, Madison, USA), according to the manufacturer’s protocol using an auto-injecting Infinite M1000 microplate reader (Tecan, Männedorf, Switzerland), following a flash luminescence protocol. The luciferase activity was normalized to transfection efficiency (Firefly raw light unit readout divided by Renilla raw light unit readout) and further expressed as fold change compared to the non-treated controls.
# (§5) In terms of the NOEC/LOEC analyses, for both approaches (DLR and viability), mean background values (blanks) were subtracted from the raw values, and the data was computed as fold induction in relation to the negative controls. Means of every experiment were pooled (experimental unit n = 3–5; observational unit N = 9–15). Normality was tested by Shapiro–Wilk and Kolmogorov–Smirnov tests (both significance level alpha = 0.05) and analyzed graphically via normal-qq-plot. Non-normal data were log-transformed and re-analyzed. Given normality, statistically differing significance in the output signal from the negative controls was assessed via one-way ANOVA, followed by Dunnett’s post hoc test (for multiple comparisons vs. control). Residuals were graphically analyzed by quantile–quantile plot (actual vs. predicted residuals), homoscedasticity plot (absolute residuals vs. fitted), and residual plot (residuals vs. fitted) to ensure ANOVA criteria were met. Further, Brown–Forsythe and Bartlett’s tests were conducted to check for the residuals’ homoscedasticity and normality. Beyond statistical significance, for all viability tests, a threshold of 80% as compared to the negative control (corresponding 0.8) was determined as biologically significant and marked with a dotted red line within all respective graphs. […]
# [2] = test system: AhR (AhR/ARNT/XRE pathway); assay: as above; settings: zebrafish, BNF exposure
# Procedure: as §1, §2, §3, §4, §5
# ZFL cells = assay: MTS/BCA-multiplex viability assay on transiently transfected ZFL cells
# Procedure: In parallel to the DLR assays, MTS/BCA-multiplex assays were conducted on identically treated cells. The MTS/BCA-multiplex assay, which is described in detail in (Lungu-Mitea et al. [2021]), scores NADPH-turnover and total protein amount as apical endpoints of cell viability or cytotoxicity. After 24 h exposure, the spiked nutrition medium was discharged, cells were washed once in 100 µL/well PBS, and 100 µL/well Earle’s Balanced Salt Solution (EBSS; Gibco, Paisley, UK) was added. MTS-based CellTiter 96® AQueous One Solution Cell Proliferation Assay (Promega, Madison, USA) was conducted following the manufacturer’s protocol. Seventeen percent (v/v) MTS reagent were added to the wells. After 2 h of incubation at 28 °C and atmospherical CO2, formazan product turnover absorbance was measured at 490 nm using an Infinite M1000 microplate reader. Afterwards, EBSS and MTS reagents were removed. Cells were washed once in 100 µL/well PBS and lysed in 20-µL PLB at RT for 30 min. Bicinchoninic Acid Protein Assay (BCA, Sigma-Aldrich, St. Louis, USA) was conducted following the manufacturer’s protocol. One hundred eighty microliters of BCA-reagent was added to every well, plates were agitated shortly, and incubated for 20 min at 60 °C. After cooling down for 15 min at RT, absorbance was measured at 562 nm using an Infinite M1000 microplate reader.
# In terms of the NOEC/LOEC analyses, for both approaches (DLR and viability), mean background values (blanks) were subtracted from the raw values, and the data was computed as fold induction in relation to the negative controls. Means of every experiment were pooled (experimental unit n = 3–5; observational unit N = 9–15). Normality was tested by Shapiro–Wilk and Kolmogorov–Smirnov tests (both significance level alpha = 0.05) and analyzed graphically via normal-qq-plot. Non-normal data were log-transformed and re-analyzed. Given normality, statistically differing significance in the output signal from the negative controls was assessed via one-way ANOVA, followed by Dunnett’s post hoc test (for multiple comparisons vs. control). Residuals were graphically analyzed by quantile–quantile plot (actual vs. predicted residuals), homoscedasticity plot (absolute residuals vs. fitted), and residual plot (residuals vs. fitted) to ensure ANOVA criteria were met. Further, Brown–Forsythe and Bartlett’s tests were conducted to check for the residuals’ homoscedasticity and normality. Beyond statistical significance, for all viability tests, a threshold of 80% as compared to the negative control (corresponding 0.8) was determined as biologically significant and marked with a dotted red line within all respective graphs.
smiles,measurement,setting,value
"O=c1cc(-c2ccccc2)oc2ccc3ccccc3c12 [BNF, β-naphthoflavone]",effect on AhR-related signal,"[1]; 300 nM BNF, pGudluc7.5 with non-viral promoter normalization vectors (Fig. 1C + D)",statistically significant inhibition
same,maximum induction of AhR-related luminescence,"[1]; BNF at 10 nM, pGL4.43 + pRL-null[zfEF1aPro] (Fig. S5)",3.9 fold
same,LOEC,"[1]; BNF exposure, pGL4.43 + pRL-null[zfEF1aPro] (Fig. S5)",3 nM
same,EC50,"[1]; BNF exposure, setup (a) pGL4.43 + pGL4.70, bell-shaped regression, normalized induction",2.95 nM
same,induction of AhR-related luciferase signal,"[1]; BNF screening, co-transfection with pGudluc7.5 (Figs. 1C + D, 2, S4)",no overall statistically significant induction
same,induction of AhR-related luciferase response,"[1]; BNF screening, pGL4.43 + pGL4.74, pGL4.43 + pRL-SV40, pGL4.43 + pGL4.73 (viral promoters)",1.5- to threefold
same,statistically significant cytotoxicity,"ZFL cells; BNF 3-300 nM, pGL4.43 with any viral promoter-bearing vector (Fig. S3)",No statistically significant cytotoxicity
same,cytotoxicity by biological threshold (0.8),"ZFL cells; BNF highest exposure concentration, pGL4.43 + pRL-SV40 and pRL-CMV, at least one endpoint (Fig. S3D + F)",depicted cytotoxicity by biological threshold definition
same,cytotoxicity (statistical or biological significance),"ZFL cells; BNF highest exposure concentration, pGudluc7.5 + CMV and SV40-bearing vectors, at least one apical endpoint (Fig. S4C-F)",Cytotoxicity was recorded
same,statistically significant cytotoxicity (MTS and BCA endpoints),"ZFL cells; BNF, entire concentration range up to 1 µM, non-viral promoter setups (Fig. 1)",no statistically significant cytotoxicity

# — PMC10406726, “Development, scrutiny, and modulation of transient reporter gene assays of the xenobiotic metabolism pathway in zebrafish hepatocytes” (Cell Biology and Toxicology, 2021)
